Measured values published in ChEMBL document CHEMBL1201862, “PubChem BioAssay data set” (2004).
Activity calls are given as the source filed them.

Experiments:
HEK293 [1] = experiment: inhibition of NOD1-driven NF-kB reporter – cell-based, luminescence, uHTS, primary screen (AID 1578); type: functional; conditions: Homo sapiens
HEK293 [2] = experiment: cells; type: functional, cell-based; conditions: Homo sapiens
HEK293 [3] = experiment: cells; type: functional, cell-based; conditions: Homo sapiens; remark: listed apart in the source
HEK293 [4] = experiment: NOD2 signaling inhibitors in MDP-stimulated cells, cell-based, uHTS, luminescence (AID 2001); type: functional; conditions: Homo sapiens
[5] = target: Voltage-dependent T-type calcium channel subunit alpha-1H (Homo sapiens, UniProt O95180); type: functional;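 note: channel activity triggered by adding a high calcium stimulation buffer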
Sequence of Voltage-dependent T-type calcium channel subunit alpha-1H (O95180 whole entry): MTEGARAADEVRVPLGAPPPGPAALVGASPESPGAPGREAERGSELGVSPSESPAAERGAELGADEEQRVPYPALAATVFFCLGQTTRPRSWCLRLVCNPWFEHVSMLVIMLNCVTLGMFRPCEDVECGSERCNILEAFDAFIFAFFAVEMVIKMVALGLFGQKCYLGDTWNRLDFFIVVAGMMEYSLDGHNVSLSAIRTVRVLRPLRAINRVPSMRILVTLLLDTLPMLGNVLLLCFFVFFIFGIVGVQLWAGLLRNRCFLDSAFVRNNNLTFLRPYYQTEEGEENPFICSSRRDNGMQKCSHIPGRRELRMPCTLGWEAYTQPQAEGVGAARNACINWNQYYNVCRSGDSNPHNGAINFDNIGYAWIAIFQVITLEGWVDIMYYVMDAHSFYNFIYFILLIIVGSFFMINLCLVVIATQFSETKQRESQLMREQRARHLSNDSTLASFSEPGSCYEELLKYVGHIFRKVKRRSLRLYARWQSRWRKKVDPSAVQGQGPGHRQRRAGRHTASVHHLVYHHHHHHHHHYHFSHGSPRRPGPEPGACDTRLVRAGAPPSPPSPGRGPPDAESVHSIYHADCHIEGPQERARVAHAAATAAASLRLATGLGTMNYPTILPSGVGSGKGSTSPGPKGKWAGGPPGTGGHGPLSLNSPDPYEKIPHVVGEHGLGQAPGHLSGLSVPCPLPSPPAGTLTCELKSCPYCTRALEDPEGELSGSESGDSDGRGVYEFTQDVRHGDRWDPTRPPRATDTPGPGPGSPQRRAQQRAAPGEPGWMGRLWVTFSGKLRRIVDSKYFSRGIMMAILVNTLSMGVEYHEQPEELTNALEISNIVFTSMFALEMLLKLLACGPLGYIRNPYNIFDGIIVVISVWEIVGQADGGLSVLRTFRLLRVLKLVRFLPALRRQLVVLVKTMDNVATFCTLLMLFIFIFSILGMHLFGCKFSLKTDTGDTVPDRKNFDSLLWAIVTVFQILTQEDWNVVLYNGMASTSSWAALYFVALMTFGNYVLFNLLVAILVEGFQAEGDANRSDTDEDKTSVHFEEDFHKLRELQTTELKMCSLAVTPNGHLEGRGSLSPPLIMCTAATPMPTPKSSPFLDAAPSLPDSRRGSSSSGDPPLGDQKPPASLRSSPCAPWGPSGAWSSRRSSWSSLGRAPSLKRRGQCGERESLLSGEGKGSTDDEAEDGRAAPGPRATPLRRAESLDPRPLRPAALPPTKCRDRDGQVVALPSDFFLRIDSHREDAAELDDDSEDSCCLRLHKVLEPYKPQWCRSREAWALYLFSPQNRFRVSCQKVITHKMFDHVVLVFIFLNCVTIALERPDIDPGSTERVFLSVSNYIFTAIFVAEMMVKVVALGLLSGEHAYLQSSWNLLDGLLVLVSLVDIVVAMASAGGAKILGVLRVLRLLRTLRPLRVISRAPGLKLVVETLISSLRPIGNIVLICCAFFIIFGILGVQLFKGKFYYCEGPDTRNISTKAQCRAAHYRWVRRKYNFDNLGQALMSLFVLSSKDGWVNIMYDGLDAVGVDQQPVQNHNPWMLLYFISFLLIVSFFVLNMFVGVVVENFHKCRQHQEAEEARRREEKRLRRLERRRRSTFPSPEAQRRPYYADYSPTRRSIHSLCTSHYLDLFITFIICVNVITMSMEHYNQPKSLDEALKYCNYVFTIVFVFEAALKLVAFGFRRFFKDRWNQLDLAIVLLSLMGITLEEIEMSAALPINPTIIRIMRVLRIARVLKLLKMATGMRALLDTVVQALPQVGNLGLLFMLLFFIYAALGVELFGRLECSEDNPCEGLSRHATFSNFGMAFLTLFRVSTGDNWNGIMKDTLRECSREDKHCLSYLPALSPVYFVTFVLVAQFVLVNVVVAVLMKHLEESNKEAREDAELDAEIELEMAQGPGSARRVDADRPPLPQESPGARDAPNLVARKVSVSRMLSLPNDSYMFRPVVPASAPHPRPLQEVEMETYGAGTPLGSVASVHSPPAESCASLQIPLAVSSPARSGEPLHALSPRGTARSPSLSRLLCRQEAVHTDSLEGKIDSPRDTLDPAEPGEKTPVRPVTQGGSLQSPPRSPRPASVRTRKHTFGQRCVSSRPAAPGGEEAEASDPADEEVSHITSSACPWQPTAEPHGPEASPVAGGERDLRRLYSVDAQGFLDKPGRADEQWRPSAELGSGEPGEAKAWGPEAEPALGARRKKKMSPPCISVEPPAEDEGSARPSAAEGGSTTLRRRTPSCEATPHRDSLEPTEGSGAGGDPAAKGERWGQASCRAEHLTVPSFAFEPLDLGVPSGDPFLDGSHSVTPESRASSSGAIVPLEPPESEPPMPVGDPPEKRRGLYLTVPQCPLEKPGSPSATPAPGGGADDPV

[6] = A Cell Based Secondary Assay To Explore Cytotoxicity of Compounds that Sensitize Mycobacterium Tuberculosis to Beta-Lactam Antibiotics.; type: functional
Prothrombin = Prothrombin (Homo sapiens, UniProt P00734); experiment: Thrombin 1536 HTS Dose Response Confirmation. [Related pubchem assays: 1046 (Thrombin 1536 HTS; hits were confirmed in this assay)]; type: functional
[7] = target: T1, Replicative DNA helicase DnaB (Mycobacterium tuberculosis, UniProt P9WMR3); experiment: DnaB intein splicing inhibitors, dose response, biochemical, cell-free fluorescence (AID 449749); type: functional
T1 sequence (P9WMR3 whole entry): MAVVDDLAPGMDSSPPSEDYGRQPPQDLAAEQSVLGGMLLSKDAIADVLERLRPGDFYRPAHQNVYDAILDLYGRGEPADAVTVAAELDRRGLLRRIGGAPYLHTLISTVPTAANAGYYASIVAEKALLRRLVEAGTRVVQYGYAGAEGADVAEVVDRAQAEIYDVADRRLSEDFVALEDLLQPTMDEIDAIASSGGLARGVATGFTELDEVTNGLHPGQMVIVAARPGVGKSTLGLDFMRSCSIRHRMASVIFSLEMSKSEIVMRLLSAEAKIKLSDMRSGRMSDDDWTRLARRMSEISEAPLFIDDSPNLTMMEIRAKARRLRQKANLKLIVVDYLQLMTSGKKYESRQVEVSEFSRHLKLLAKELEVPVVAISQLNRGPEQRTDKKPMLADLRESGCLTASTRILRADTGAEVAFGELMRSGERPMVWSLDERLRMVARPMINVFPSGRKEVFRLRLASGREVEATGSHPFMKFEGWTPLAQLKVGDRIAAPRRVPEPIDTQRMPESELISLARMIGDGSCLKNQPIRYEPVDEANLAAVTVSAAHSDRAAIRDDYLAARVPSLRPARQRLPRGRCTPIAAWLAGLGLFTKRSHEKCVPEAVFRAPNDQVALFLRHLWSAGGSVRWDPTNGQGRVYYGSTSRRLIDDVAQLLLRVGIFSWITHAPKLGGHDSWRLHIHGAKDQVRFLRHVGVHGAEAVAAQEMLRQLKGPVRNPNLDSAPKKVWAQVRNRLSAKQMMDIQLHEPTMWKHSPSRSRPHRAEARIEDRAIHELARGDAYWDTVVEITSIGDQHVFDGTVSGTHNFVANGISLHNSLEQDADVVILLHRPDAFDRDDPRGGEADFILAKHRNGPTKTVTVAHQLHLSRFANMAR

Protein RecA = target: T2, Protein RecA (Mycobacterium tuberculosis, UniProt P9WHJ3); experiment: Fluorescence Cell-Free Homogeneous Dose Retest to Identify Inhibitors of RecA-Intein Splicing Activity. [Related pubchem assays (depositor defined):AID2097, AID2223, AID489010, AID492950]; type: functional
T2 sequence (P9WHJ3 whole entry): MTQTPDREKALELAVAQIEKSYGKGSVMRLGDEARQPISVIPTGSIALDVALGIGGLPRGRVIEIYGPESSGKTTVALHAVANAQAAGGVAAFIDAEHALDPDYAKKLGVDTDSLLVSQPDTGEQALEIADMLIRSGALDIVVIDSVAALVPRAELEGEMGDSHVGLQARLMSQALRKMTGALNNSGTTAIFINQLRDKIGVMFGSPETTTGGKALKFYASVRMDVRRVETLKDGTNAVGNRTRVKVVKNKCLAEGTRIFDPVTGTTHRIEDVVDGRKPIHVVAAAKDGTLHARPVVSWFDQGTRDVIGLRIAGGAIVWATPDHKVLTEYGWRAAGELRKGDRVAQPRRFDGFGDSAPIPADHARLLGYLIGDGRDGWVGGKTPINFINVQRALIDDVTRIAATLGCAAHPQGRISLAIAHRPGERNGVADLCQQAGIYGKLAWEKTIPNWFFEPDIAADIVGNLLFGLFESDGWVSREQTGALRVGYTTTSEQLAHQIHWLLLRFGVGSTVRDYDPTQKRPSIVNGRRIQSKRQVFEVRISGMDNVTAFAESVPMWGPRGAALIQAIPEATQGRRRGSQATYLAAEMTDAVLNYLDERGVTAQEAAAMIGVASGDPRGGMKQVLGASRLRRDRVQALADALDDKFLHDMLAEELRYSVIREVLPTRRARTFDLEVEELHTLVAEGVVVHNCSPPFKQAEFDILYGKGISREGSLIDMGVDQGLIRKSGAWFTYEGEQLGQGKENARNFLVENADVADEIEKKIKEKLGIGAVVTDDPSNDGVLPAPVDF

Coagulation factor XII = target: T3, Coagulation factor XII (Homo sapiens, UniProt P00748); type: functional;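 note: activated factor XIIa alpha cleaving a fluorogenic AMC peptide substrate; inhibitor potency from loss of enzyme activity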
T3 sequence (P00748 whole entry): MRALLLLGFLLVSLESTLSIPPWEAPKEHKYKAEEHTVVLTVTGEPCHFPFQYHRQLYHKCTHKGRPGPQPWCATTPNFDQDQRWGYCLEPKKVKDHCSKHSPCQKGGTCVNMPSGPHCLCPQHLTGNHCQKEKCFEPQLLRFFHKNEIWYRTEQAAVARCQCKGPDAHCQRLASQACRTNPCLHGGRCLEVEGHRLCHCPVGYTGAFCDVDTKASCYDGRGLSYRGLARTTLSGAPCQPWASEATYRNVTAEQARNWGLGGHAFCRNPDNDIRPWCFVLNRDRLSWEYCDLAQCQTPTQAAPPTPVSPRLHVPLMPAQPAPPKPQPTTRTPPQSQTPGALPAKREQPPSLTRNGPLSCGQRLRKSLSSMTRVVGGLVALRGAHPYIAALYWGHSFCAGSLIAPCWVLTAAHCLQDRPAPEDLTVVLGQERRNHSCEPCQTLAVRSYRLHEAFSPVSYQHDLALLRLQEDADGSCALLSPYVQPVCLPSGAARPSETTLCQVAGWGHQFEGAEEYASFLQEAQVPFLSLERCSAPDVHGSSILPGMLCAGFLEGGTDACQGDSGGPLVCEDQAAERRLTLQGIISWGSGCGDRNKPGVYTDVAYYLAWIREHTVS

[8] = target: T4, Voltage-gated N-type calcium channel alpha-1B subunit/Amyloid beta A4 precursor protein-binding family A member 1 (Homo sapiens, UniProt Q00975+Q02410); type: protein assay
[9] = target: T4, Voltage-gated N-type calcium channel alpha-1B subunit/Amyloid beta A4 precursor protein-binding family A member 1; type: protein assay; remark: listed apart in the source
H9c2 = experiment: cells; type: functional, cell-based; conditions: Rattus norvegicus, H9c2, Myocardium;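 note: confirmatory concentration-response retest of ultra-high-throughput screening hits for modulation of myocardial damage; cell death induced by hydrogen peroxide oxidative stress; compound pretreatment for 60 min then peroxide exposure for 2 h; potency is for protecting the cells against peroxide damage rather than for killing them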

In the case of COC(=O)c1ccc2c(O)nc(CCl)nc2c1, the EC50 (HEK293 [1]) was > 20 µM (inactive), the IC50 (HEK293 [2]) was > 20 µM (inactive) and the IC50 (HEK293 [3]) was > 20 µM (inactive). For the same molecule, the IC50 (HEK293 [4]) was > 20 µM (inactive).
In the case of COc1ccc(NC(=O)c2ccco2)cc1NC(=O)c1cccc(OC(C)C)c1, the EC50 [5] was 8.24 µM (active).
With COc1ccc(-c2nn(-c3ccccc3)cc2C(=O)Nc2nccs2)cc1OC the CC50 [6] was 32 µM (active).
With Cc1ccc(C)c(S(=O)(=O)NCCCN2CCOCC2)c1 the IC50 (Prothrombin) was > 50 µM (not active).
In the case of CCCCCCCN(C(=O)CCl)c1ccccc1C, the CC50 [6] was 2.82 µM (active), the AC50 [7] was 7.86 µM (active) and the EC50 (Protein RecA) was 0.893 µM (active).
In the case of Fc1ccc(SCCc2ccccn2)cc1, the IC50 (Coagulation factor XII) was > 50 µM (inactive).
With CCCCCOC(=O)Nc1nnc(CCCCC)s1 the IC50 (Coagulation factor XII) was > 50 µM (inactive).
With CCc1cccc(NC(=O)C[S+]([O-])Cc2nc(-c3ccc(C)cc3)oc2C)c1 (stereo not drawn) the EC50 [5] was 3.17 µM (active).
In the case of O=C1NC(=O)N(Cc2ccccc2)C(=O)/C1=C/c1cnn(-c2ccccc2)c1, the IC50 [8] was 14.9 µM (active) and the IC50 [9] was > 50 µM (inactive).
With O=C(NCc1ccco1)c1scc2c1OCCO2 the IC50 (Coagulation factor XII) was > 50 µM (inactive).
With CCOC(=O)[C@H]1[C@H]2COc3ccc(Br)cc3[C@@H]2N2C(=O)c3cc(OC)c(OC)cc3NC(=O)[C@@]12C the CC50 [6] was > 40 µM (active) and the IC50 (H9c2) was 15.5 µM (active).
